In US20230407243A1, “GENETIC PLATFORM TO INVESTIGATE THE FUNCTIONS OF BACTERIAL DRUG EFFLUX PUMPS” (priority 2022, published 2023):
Converted amounts (≈) assume the structure as drawn. Read-outs that look alike come from different tables or passages of the source.

Assays:
Assay type in all cases: cell-based, Escherichia coli
E. coli EKO-35 = assay: microbe, parasite or virus in culture; details: for MIC: Escherichia coli, EKO35, technical duplicate
In short: (§1)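 OD600 read-out, background-corrected, after 18 h at 37 °C with shaking. Compounds were tested in duplicate as 2-fold series in MHB II, with DMSO as solvent control. Inoculum was a 1/2000 dilution of an OD600 ~1.0 PBS suspension.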

E. coli ΔtolC = assay: microbe, parasite or virus in culture
In short: as §1

[1] = system: wild-type E. coli K-12 str. BW25113; assay: microbe, parasite or virus in culture; details: Escherichia coli, BW25113, technical duplicate
In short: as §1

EKO-35 araC::emrKY Pore = assay: MIC susceptibility profiling, porinated efflux platform
In short: (§2)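 Strains carry the fhuA ΔC/Δ4L pore integrated between glmS and pstS under a constitutive promoter, with pore activity checked by vancomycin susceptibility. Overnight LB cultures were adjusted in PBS pH 7.4 to OD600 ~1.0 and diluted 1/2000 into MHB II. 2-fold compound titrations were read by OD600 after 18 h at 37 °C.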

EKO-35 araC::macAB Pore = assay: as above
In short: as §2

EKO-35 araC::mdtBC Pore = assay: as above
In short: as §2

EKO-35 araC::mdtEF Pore = assay: as above; details: EKO-35 araC::mdtEF Pore compared to EKO-35-Pore
In short: as §2

EKO-35 araC::mexCD Pore = assay: as above
In short: as §2

EKO-35 (empty pCA24N) = assay: microbe, parasite or virus in culture; details: for MIC: EKO-35 empty pCA24N, 0.1 mM IPTG
[2] = system: EKO-35 strains producing different efflux pumps (EKO-35 araC::X); assay: Checkerboard synergy (FICI) of PAβN or NMP with antibiotics; details: for Effect / FICI: PAβN + antibiotic; for MICb Alone: antibiotic alone (PAβN checkerboard); for MICb Combined: antibiotic in combination with PAβN
In short: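 MHB II, CLSI microdilution checkerboard, colony-resuspension inoculum, solvent controls per plate. MIC = no growth at OD600. FICI summed from FIC of PAβN/NMP and antibiotic; <0.5 synergistic, >2.0 antagonistic.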

Q: Which results are given for `CO[C@@H]1[C@@H](OC(N)=O)[C@@H](O)[C@H](Oc2ccc3c(O)c(NC(=O)c4ccc(O)c(CC=C(C)C)c4)c(=O)oc3c2C)OC1(C)C` [novobiocin]?
A: Fold change of MICs (E. coli EKO-35; EKO-35 compared to EKO-35 (reference)): 1 fold; MIC (E. coli EKO-35; Table 10, without pore, read-out: Minimum inhibitory concentration (MIC), EKO-35): 3.12 µg/mL; MIC (E. coli EKO-35; Table 13A, non-porinated, read-out: Minimum Inhibitory Concentration, EKO-35): 3.12 µg/mL; MIC (E. coli ΔtolC; Escherichia coli, 18 h, read-out: Minimum Inhibitory Concentration, ΔtolC): 0.781 µg/mL; Minimum inhibitory concentration (MIC), ΔtolC (E. coli ΔtolC; Table 10, without pore, technical duplicate): 0.781 µg/mL; fold difference in MIC between EKO-35 and ΔtolC (E. coli ΔtolC; ΔtolC mutant more susceptible than EKO-35, Table 10): 4 fold; MIC ([1]; Table 10, without pore, read-out: Minimum inhibitory concentration (MIC), K-12): 200 µg/mL; MIC ([1]; Table 13A, non-porinated, read-out: Minimum Inhibitory Concentration, K-12): 200 µg/mL; Fold changes of MICs (EKO-35 araC::emrKY Pore; EKO-35 araC::emrKY Pore compared to EKO-35-Pore): 1 fold; MIC (EKO-35 araC::emrKY Pore; Escherichia coli, EKO-35 araC::emrKY Pore, technical duplicate, read-out: Minimum inhibitory concentration): 0.781 µg/mL; Fold changes of MICs (EKO-35 araC::macAB Pore; EKO-35 araC::macAB Pore compared to EKO-35-Pore): 1 fold; MIC (EKO-35 araC::macAB Pore; Escherichia coli, EKO-35 araC::macAB Pore, technical duplicate, read-out: Minimum inhibitory concentration): 0.781 µg/mL; Fold changes of MICs (EKO-35 araC::mdtBC Pore; EKO-35 araC::mdtBC Pore compared to EKO-35-Pore): 4 fold; MIC (EKO-35 araC::mdtBC Pore; Escherichia coli, EKO-35 araC::mdtBC Pore, technical duplicate, read-out: Minimum inhibitory concentration): 3.12 µg/mL; Fold changes of MICs (EKO-35 araC::mdtEF Pore): 16 fold; Fold changes of MICs (EKO-35 araC::mexCD Pore; EKO-35 araC::mexCD Pore compared to EKO-35-Pore): 4 fold; MIC (EKO-35 araC::mexCD Pore; Escherichia coli, EKO-35 araC::mexCD Pore, technical duplicate, read-out: Minimum inhibitory concentration): 3.12 µg/mL; MIC (EKO-35 (empty pCA24N); Chlor + (4 μg/mL chloramphenicol)): 3.13 µg/mL; MIC (EKO-35 (empty pCA24N); Escherichia coli, Chlor −, read-out: MIC): 3.13 µg/mL (≈ 5.11 µM); fold difference in susceptibility between EKO-35 and ΔtolC (EKO-35 (empty pCA24N); while profiling the ASKA EKO-35 strains): 2 fold; Effect ([2]; EKO-35 acrB): Synergistic; FICI ([2]; EKO-35 acrB): 0.156; MICb Alone ([2]; EKO-35 acrB): 1024 µg/mL; MICb Combined ([2]; EKO-35 acrB): 32 µg/mL; Effect ([2]; EKO-35 acrD): Synergistic; FICI ([2]; EKO-35 acrD): 0.313; MICb Alone ([2]; EKO-35 acrD): 512 µg/mL; MICb Combined ([2]; EKO-35 acrD): 32 µg/mL
